Activity calls are given as the source filed them.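 Rule for the calls: active = inhibition of 30% or more at any tested concentration; inactive = the rest.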
biological target: Cytosol aminopeptidase (Homo sapiens) (UniProt P28838); assay: inhibition of HuM17LAP aminopeptidase activity – biochemical, QFRET fluorogenic substrate, counter-screen for PfM17LAP inhibitor project, dose response (AID 602214); conditions: purified recombinant human M17LAP, H-Leu-NHMec fluorescence
Sequence (P28838 whole entry, looked up): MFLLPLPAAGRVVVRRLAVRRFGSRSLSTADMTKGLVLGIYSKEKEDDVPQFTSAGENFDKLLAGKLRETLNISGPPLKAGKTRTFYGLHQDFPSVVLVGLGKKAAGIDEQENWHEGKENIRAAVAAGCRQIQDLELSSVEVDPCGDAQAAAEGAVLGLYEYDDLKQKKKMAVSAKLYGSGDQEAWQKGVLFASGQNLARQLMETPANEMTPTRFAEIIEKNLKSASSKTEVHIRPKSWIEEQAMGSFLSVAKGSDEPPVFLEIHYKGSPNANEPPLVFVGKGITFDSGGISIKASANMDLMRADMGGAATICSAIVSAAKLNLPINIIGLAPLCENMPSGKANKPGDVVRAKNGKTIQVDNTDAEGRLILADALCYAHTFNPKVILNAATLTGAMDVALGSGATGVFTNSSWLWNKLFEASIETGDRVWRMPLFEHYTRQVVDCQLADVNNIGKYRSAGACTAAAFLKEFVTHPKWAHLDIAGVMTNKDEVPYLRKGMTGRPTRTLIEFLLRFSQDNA

SMILES	IC50 [nM]
CCCCOc1ccc(CCC(=O)NO)cc1	16200
COc1ccc(CC(=O)NO)cc1	1640
CCCCCCCCCC(=O)NO	8230
CCCCOc1ccc(CC(=O)NO)cc1	310
CCOc1ccc(CC(=O)NO)cc1	1110
CCCCOc1ccc(C(=O)NO)cc1	8670
O=C(Cc1ccc2c(c1)CCCC2)NO	280

The next lines start with the values.

IC50 [nM]	SMILES
520	O=C(Cc1ccc(Oc2ccccc2)cc1)NO
210	CC(C)COc1ccc(CC(=O)NO)cc1
290	O=C(Cc1ccc2ccccc2c1)NO
85700	COC(=O)c1c(NC(=O)C2CC=CCC2C(=O)O)sc(C)c1-c1ccc(C)cc1 (centres undefined)
990	O=C(Cc1cccc2ccccc12)NO
1820	Cc1ccc(CC(=O)NO)cc1
1180	O=C(Cc1ccc(OCc2ccccc2)cc1)NO
44200	COc1ccc(OCCC(=O)NO)cc1
4580	COc1ccc(CCCC(=O)NO)cc1
31900	O=C(NO)c1cccc2ccccc12
350	CCCCc1ccc(CC(=O)NO)cc1

same assay, conditions: purified recombinant human M17LAP, H-Leu-NHMec fluorescence; at 25 µM (top of the series)

inhibition	SMILES
inactive	CCCCOc1ccc(CNc2c(N(C)O)c(=O)c2=O)cc1

same assay, conditions: purified recombinant human M17LAP, H-Leu-NHMec fluorescence; at 50 µM (top of the series)

SMILES	inhibition
COC(=O)c1ccccc1NC(=O)c1cc2cc3ccc(C)cc3nc2s1	inactive
CCCCOc1ccc(CC(=O)N(C)O)cc1	inactive
O=C(CSc1nccc(=O)[nH]1)Nc1ccc(Oc2ccccc2)cc1	inactive

Further lines, results first:

inhibition	SMILES
inactive	O=C1OCCC1Sc1nnc(NC2CCCCC2)s1 (centres undefined)
inactive	COC(=O)c1ccccc1NC(=O)c1ccc2c(Cl)c3c(nc2c1)CCC3

same assay, conditions: purified recombinant human M17LAP, H-Leu-NHMec fluorescence; at 100 µM (top of the series)

SMILES	inhibition
COc1cc(NC(=O)c2ccc(-c3ccccc3)cc2)c(C(=O)O)cc1OC	inactive
O=C(O)c1ccccc1C(=O)Nc1nc2c(s1)CCCC2	inactive
COc1cc(NC(=O)CSc2ccccc2)c(C(=O)O)cc1OC	inactive
O=C(CSc1nccc(=O)[nH]1)Nc1ccc(N2CCOCC2)cc1	inactive
CCC(C)(C)C1CCc2c(sc(NC(=O)C3CC(C)=C(C)CC3C(=O)O)c2C(=O)OC)C1 (centres undefined)	inactive
CCCCOc1ccc(CNc2c(N(O)Cc3ccccc3)c(=O)c2=O)cc1	inactive
CN(O)C(=O)Cc1ccc(OCc2ccccc2)cc1	inactive
CC(C)C[C@H](N)C(=O)NO	inactive
NC(N)=NCCC[C@H](N)C(=O)NO	inactive
CC1=C(C)CC(C(=O)Nc2nc(-c3cc(C)ccc3C)c(C)s2)C(C(=O)O)C1 (centres undefined)	inactive
O=C(Nc1ccc(Cl)cc1)Nc1ccccc1C(=O)O	inactive
COc1ccc(-c2nnc(NC(=O)C3CC(C)=C(C)CC3C(=O)O)s2)cc1 (centres undefined)	inactive
Cc1cc(SCC(=O)Nc2ccccc2C(=O)O)nc2ccccc12	inactive
CCCOc1ccc(CC(=O)OC)cc1	inactive

Further lines, results first:

inhibition	SMILES
inactive	CCCCOc1ccc(CC(=O)O)cc1
inactive	COC(=O)Cc1ccc(OCC(C)C)cc1
inactive	COC(=O)c1c(NC(=O)c2ccccc2C(=O)O)sc2c1CCCC2
inactive	O=C(CSc1nc(O)cc(=O)[nH]1)Nc1ccccc1
inactive	CC1=C(C)CC(C(=O)Nc2ccc(Oc3ccc(Cl)cc3)cc2)C(C(=O)O)C1 (centres undefined)
inactive	COC(=O)c1c(NC(=O)C2CCCCC2C(=O)O)sc2c1CCC(c1ccccc1)C2 (centres undefined)
inactive	Cc1cc(=O)[nH]c(SCC(=O)Nc2ccccc2)n1
inactive	CC(C)(C(=O)NO)c1ccccc1
inactive	CCC(C)Oc1ccc(CC(=O)OC)cc1 (centres undefined)
inactive	Cc1ccc(NC(=O)CSc2nc(O)cc(=O)n2Cc2ccccc2)cc1
inactive	CCn1c2ccccc2c2cc(NC(=O)CSc3nc(C)cc(=O)[nH]3)ccc21
inactive	COC(=O)Cc1ccc(OCCN(C)C)cc1
inactive	N[C@@H](Cc1c[nH]c2ccccc12)C(=O)NO
inactive	O=C(CSc1ccccc1)Nc1cccc2c1C(=O)NC2=O
inactive	CC1CCc2sc(C(=O)Nc3cccc4c3C(=O)NC4)cc2C1 (centres undefined)
inactive	COC(=O)c1cc(OC)c(OC)cc1NC(=O)c1sc2nc(C)ccc2c1N

Reference: PubChem BioAssay AID602214 (Southern Research Specialized Biocontainment Screening …, 2012)
